Experimental data from patent US20120177698A1, “AGGREGATES WITH INCREASED DEFORMABILITY, COMPRISING AT LEAST THREE AMPHIPATS, FOR IMPROVED TRANSPORT THROUGH SEMI-PERMEABLE BARRIERS AND FOR THE NON-INVASIVE DRUG APPLICATION IN VIVO, ESPECIALLY THROUGH THE SKIN” (priority 2002, published 2012).

Experiment: Barrier transport resistance, simple experimental method (SEM), filtration through 0.2 micrometer filter
Type: physicochemical
Conditions: Examples 121-129; relative SDS concentration in SPC/Tween 80 bilayer; some uncertainty in the 2-6 mol % region
Source text: In first approximation one relies on simple experimental method (SEM) and takes barrier transport resistance (in arbitrary units) to be proportional to the pressure (in arbitrary units) needed to drive a suspension of relatively large vesicles through a 0.2 micrometer filter with good efficacy. […] Barrier penetrability, which in older publications is called permeability, is identified with inverse barrier resistance value. […] Drug Delivery Rev. 18:349-378 (1996).
Transport (pore penetration) capability. […] The trend is enhanced by the presence of sodium dodecylsulphate in the mixed lipid aggregates. The later shifts the minimum amount of Tween needed to cross the semi-permeable barrier to increasingly lower relative concentration values.
Transport ability ([…] capability and adaptability) of aggregate suspension. To characterise the resistance of semi-permeable barrier to suspension flux (=transbarrier flux), the same method as in examples 1-120 was used. The resistance was measured as a function of relative SDS concentration in bilayer, to determine minimum amount of this latter surfactant that is needed to maximise suspension flux across the barrier and minimises the barrier transport resistance value. […] This is consistent with the results of first test series (examples 1-120) except in that the measured resistance values are now somewhat higher. […]

## CCCCCCCCCCCCOS(=O)(=O)[O-].[Na+] [SDS, Sodium dodecylsulphate]
  threshold limit: minimum amount of SDS needed to minimise barrier transport resistance: around 6 mol-%
